Experimental data published in ChEMBL document CHEMBL4507324 (2021).

How the values were obtained:
Settings in all cases: Compound concentration 100.0 nM
[1] = biological target: Calcium/calmodulin-dependent protein kinase type 1B (Homo sapiens) (UniProt Q6P2M8)
[2] = biological target: Ribosomal protein S6 kinase alpha-2 (Homo sapiens) (UniProt Q15349)
[3] = biological target: Phosphatidylinositol 4,5-bisphosphate 3-kinase catalytic subunit alpha isoform (Homo sapiens) (UniProt P42336)
[4] = biological target: Phosphorylase b kinase gamma catalytic chain, skeletal muscle/heart isoform (Homo sapiens) (UniProt Q16816)
[5] = biological target: Phosphatidylinositol 4,5-bisphosphate 3-kinase catalytic subunit beta isoform (Homo sapiens) (UniProt P42338)
[6] = biological target: Dual specificity mitogen-activated protein kinase kinase 3 (Homo sapiens) (UniProt P46734)
[7] = biological target: Serine/threonine-protein kinase MARK1 (Homo sapiens) (UniProt Q9P0L2)
[8] = biological target: Inhibitor of nuclear factor kappa-B kinase subunit alpha (Homo sapiens) (UniProt O15111)
[9] = biological target: Serine/threonine-protein kinase DCLK1 (Homo sapiens) (UniProt O15075)
[10] = biological target: Aurora kinase A (Homo sapiens) (UniProt O14965)
[11] = biological target: Mitogen-activated protein kinase kinase kinase kinase 3 (Homo sapiens) (UniProt Q8IVH8)
[12] = biological target: Activin receptor type-1 (Homo sapiens) (UniProt Q04771)
[13] = biological target: Ankyrin repeat and protein kinase domain-containing protein 1 (Homo sapiens) (UniProt Q8NFD2)
[14] = biological target: Receptor-type tyrosine-protein kinase FLT3 (Homo sapiens) (UniProt P36888)
[15] = tested on: Tyrosine-protein kinase ABL1 (Homo sapiens), P00519 [F317L]
[16] = biological target: TGF-beta receptor type-2 (Homo sapiens) (UniProt P37173)
[17] = biological target: Dual specificity tyrosine-phosphorylation-regulated kinase 2 (Homo sapiens) (UniProt Q92630)
[18] = biological target: Tyrosine-protein kinase JAK1 (Homo sapiens) (UniProt P23458)
[19] = biological target: Glycogen synthase kinase-3 beta (Homo sapiens) (UniProt P49841)
[20] = biological target: Transient receptor potential cation channel subfamily M member 6 (Homo sapiens) (UniProt Q9BX84)
[21] = biological target: Tyrosine-protein kinase Fes/Fps (Homo sapiens) (UniProt P07332)
[22] = biological target: Activin receptor type-2B (Homo sapiens) (UniProt Q13705)
[23] = tested on: Tyrosine-protein kinase ABL1 (Homo sapiens), P00519 [F317I]
[24] = biological target: Casein kinase I isoform gamma-3 (Homo sapiens) (UniProt Q9Y6M4)
[25] = biological target: Mitogen-activated protein kinase 4 (Homo sapiens) (UniProt P31152)
[26] = biological target: Platelet-derived growth factor receptor alpha (Homo sapiens) (UniProt P16234)
[27] = biological target: Mitogen-activated protein kinase 3 (Homo sapiens) (UniProt P27361)
[28] = biological target: Serine/threonine-protein kinase RIO3 (Homo sapiens) (UniProt O14730)
[29] = biological target: Mitogen-activated protein kinase kinase kinase 15 (Homo sapiens) (UniProt Q6ZN16)
[30] = biological target: Cyclin-dependent kinase 17 (Homo sapiens) (UniProt Q00537)
[31] = biological target: Cyclin-dependent kinase 7 (Homo sapiens) (UniProt P50613)
[32] = biological target: Serine/threonine-protein kinase 38 (Homo sapiens) (UniProt Q15208)
[33] = biological target: Phosphatidylinositol 4-phosphate 3-kinase C2 domain-containing subunit beta (Homo sapiens) (UniProt O00750)
[34] = biological target: Proto-oncogene tyrosine-protein kinase ROS (Homo sapiens) (UniProt P08922)
[35] = biological target: Serine/threonine-protein kinase BRSK1 (Homo sapiens) (UniProt Q8TDC3)
[36] = tested on: Epidermal growth factor receptor (Homo sapiens), P00533 [UNDEFINED MUTATION]
[37] = biological target: RAC-beta serine/threonine-protein kinase (Homo sapiens) (UniProt P31751)
[38] = biological target: Angiopoietin-1 receptor (Homo sapiens) (UniProt Q02763)
[39] = tested on: Proto-oncogene tyrosine-protein kinase receptor Ret (Homo sapiens), P07949 [M918T]
[40] = biological target: Ephrin type-A receptor 4 (Homo sapiens) (UniProt P54764)
[41] = tested on: eIF-2-alpha kinase GCN2 (Homo sapiens), Q9P2K8 [S808G]
[42] = biological target: Dual specificity mitogen-activated protein kinase kinase 5 (Homo sapiens) (UniProt Q13163)
[43] = biological target: Mitogen-activated protein kinase 10 (Homo sapiens) (UniProt P53779)
[44] = tested on: Serine/threonine-protein kinase B-raf (Homo sapiens), P15056 [V600E]
[45] = biological target: cGMP-dependent protein kinase 1 (Homo sapiens) (UniProt Q13976)

Measured: residual activity

Serine/threonine-protein kinase RIO3 (Homo sapiens), sequence (O14730 whole entry): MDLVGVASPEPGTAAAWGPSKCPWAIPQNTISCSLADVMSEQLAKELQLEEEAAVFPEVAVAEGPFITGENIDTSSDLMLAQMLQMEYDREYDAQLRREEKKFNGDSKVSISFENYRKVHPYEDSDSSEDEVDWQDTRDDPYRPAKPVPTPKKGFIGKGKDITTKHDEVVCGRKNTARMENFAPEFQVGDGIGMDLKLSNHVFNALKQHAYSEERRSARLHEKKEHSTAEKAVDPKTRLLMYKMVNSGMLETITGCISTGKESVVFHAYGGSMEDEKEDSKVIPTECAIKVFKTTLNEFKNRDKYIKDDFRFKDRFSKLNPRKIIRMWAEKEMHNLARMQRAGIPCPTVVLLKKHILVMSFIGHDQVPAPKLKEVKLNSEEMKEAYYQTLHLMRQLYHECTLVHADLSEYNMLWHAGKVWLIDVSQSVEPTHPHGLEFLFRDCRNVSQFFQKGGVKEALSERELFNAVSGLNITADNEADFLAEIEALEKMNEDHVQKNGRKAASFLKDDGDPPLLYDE
Angiopoietin-1 receptor (Homo sapiens), sequence (Q02763 whole entry): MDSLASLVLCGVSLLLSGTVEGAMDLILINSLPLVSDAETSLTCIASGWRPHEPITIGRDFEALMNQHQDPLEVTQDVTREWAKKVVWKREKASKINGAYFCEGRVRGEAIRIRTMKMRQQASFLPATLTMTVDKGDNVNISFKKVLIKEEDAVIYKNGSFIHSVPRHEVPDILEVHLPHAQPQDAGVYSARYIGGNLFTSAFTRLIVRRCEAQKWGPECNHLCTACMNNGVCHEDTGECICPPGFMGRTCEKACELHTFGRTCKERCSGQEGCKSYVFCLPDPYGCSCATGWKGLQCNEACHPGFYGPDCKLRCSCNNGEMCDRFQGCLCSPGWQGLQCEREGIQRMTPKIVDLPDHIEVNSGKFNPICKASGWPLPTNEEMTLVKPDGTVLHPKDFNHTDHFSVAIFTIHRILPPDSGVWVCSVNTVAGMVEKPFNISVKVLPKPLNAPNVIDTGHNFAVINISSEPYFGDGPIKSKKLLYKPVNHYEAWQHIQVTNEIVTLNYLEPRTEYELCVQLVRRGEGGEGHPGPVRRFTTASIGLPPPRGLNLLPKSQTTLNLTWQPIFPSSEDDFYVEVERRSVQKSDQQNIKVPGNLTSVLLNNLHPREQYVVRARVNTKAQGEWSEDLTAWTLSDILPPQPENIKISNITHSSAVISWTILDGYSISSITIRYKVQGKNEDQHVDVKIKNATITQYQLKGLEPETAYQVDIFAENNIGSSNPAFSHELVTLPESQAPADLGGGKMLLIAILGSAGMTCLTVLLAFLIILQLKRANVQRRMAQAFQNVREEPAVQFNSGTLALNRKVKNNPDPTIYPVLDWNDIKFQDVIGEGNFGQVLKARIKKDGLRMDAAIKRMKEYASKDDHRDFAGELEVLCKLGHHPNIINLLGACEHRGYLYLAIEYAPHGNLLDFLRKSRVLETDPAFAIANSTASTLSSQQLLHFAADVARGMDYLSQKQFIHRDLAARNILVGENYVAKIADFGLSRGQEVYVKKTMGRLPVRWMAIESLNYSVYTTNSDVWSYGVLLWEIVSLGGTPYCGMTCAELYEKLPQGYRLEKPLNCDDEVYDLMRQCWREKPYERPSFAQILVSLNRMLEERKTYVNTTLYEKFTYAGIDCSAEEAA
Phosphatidylinositol 4,5-bisphosphate 3-kinase catalytic subunit beta isoform (Homo sapiens), sequence (P42338 whole entry, looked up, canonical isoform): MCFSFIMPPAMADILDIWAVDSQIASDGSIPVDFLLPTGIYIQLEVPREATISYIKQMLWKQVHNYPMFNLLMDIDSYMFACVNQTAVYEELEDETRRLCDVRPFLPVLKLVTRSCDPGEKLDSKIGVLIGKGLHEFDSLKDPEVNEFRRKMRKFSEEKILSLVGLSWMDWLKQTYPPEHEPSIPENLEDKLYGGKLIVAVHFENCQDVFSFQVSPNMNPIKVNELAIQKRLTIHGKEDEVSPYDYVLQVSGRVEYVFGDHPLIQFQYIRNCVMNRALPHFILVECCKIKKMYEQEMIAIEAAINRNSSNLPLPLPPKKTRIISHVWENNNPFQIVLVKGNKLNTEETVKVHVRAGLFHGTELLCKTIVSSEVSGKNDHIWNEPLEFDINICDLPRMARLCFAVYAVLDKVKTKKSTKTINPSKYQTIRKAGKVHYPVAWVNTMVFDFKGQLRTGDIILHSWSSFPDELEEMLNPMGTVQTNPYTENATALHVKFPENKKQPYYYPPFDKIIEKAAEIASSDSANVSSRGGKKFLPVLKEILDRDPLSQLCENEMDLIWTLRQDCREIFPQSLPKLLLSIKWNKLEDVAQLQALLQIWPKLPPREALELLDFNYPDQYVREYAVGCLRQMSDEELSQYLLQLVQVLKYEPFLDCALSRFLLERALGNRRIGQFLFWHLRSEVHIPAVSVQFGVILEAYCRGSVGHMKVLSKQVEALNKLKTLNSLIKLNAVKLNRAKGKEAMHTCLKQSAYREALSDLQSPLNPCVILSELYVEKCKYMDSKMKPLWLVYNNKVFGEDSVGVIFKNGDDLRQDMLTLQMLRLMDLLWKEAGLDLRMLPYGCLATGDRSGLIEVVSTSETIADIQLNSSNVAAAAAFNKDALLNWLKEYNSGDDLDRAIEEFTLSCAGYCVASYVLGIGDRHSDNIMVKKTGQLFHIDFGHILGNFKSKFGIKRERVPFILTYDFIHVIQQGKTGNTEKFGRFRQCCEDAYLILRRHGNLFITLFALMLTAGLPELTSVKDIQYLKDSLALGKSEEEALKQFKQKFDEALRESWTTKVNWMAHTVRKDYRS
Mitogen-activated protein kinase 10 (Homo sapiens), sequence (P53779 whole entry): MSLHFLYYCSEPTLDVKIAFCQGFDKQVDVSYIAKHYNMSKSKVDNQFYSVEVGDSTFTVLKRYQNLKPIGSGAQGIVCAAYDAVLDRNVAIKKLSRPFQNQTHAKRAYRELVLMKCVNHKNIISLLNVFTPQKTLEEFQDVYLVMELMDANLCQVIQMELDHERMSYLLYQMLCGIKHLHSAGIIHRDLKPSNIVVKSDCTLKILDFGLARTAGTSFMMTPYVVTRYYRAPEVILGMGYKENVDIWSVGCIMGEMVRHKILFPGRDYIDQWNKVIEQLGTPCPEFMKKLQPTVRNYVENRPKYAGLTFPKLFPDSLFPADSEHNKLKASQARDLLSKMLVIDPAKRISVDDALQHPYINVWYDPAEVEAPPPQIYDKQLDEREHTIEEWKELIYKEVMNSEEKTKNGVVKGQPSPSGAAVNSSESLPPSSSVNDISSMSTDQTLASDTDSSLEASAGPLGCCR
Mitogen-activated protein kinase kinase kinase 15 (Homo sapiens), sequence (Q6ZN16 whole entry): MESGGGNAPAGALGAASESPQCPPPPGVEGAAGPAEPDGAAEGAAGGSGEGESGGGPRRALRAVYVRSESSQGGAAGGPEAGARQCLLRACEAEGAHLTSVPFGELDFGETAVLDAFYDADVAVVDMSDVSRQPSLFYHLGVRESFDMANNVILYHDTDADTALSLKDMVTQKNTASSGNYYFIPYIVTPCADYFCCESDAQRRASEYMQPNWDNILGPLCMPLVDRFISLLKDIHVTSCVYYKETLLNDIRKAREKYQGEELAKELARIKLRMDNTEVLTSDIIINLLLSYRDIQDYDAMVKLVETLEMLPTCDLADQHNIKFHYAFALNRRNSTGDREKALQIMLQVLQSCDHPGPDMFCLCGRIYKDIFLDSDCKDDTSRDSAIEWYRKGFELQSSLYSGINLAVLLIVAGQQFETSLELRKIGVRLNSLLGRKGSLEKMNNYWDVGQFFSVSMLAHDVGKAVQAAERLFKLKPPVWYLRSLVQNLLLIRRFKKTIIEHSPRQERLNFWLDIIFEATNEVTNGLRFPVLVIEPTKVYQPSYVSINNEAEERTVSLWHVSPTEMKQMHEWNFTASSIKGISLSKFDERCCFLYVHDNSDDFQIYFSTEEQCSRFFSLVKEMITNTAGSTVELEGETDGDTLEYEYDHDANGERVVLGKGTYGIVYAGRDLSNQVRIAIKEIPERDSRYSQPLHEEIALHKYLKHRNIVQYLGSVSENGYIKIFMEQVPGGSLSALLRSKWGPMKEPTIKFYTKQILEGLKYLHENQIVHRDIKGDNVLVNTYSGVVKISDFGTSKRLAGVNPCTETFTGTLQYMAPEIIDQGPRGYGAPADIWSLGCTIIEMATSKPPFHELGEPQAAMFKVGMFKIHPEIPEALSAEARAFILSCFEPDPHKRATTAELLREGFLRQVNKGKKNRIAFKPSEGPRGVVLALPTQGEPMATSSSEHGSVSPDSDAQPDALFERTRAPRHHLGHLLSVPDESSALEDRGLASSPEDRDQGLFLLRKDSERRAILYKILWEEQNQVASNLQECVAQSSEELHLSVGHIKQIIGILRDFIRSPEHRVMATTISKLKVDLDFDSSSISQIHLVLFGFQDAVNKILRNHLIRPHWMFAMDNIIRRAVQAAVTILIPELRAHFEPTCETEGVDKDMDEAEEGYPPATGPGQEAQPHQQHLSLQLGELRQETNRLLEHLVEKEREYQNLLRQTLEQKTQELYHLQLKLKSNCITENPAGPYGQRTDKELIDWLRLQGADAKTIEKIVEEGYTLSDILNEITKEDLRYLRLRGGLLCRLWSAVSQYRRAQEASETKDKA
Mitogen-activated protein kinase 3 (Homo sapiens), sequence (P27361 whole entry): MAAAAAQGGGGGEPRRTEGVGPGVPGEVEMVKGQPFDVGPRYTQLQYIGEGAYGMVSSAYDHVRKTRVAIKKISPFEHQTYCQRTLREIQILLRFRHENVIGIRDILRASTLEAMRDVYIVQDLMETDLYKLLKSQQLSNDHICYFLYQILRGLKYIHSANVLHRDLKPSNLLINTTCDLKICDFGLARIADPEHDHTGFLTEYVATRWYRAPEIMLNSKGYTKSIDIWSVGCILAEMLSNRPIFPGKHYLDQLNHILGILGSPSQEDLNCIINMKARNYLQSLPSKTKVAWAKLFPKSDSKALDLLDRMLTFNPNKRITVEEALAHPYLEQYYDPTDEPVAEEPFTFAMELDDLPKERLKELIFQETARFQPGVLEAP

CS(=O)(=O)N1CCCC(NC(=O)[C@H](CCC2CCCCC2)NC(=O)c2ccc(CNc3ncnc4c3nnn4-c3ccccc3)cc2)C1 (stereo not given in full) [SR-301]
inactive: [1] 100% | [2] 100% | [3] 98% | [4] 87% | [5] 81% | [6] 85% | [7] 74% | [8] 100% | [9] 100% | [10] 100% | [11] 75% | [12] 88% | [13] 80% | [14] 82% | [15] 91% | [16] 93% | [17] 100% | [18] 100% | [19] 100% | [20] 96% | [21] 87% | [22] 83% | [23] 95% | [24] 100% | [25] 96% | [26] 91% | [27] 89% | [28] 88% | [29] 74% | [30] 86% | [31] 100% | [32] 83% | [33] 95% | [34] 91% | [35] 100% | [36] 66% | [37] 100% | [38] 73% | [39] 93% | [40] 76% | [41] 100% | [42] 100% | [43] 100% | [44] 100% | [45] 95%

CS(=O)(=O)N1CCCC(NC(=O)[C@H](CCC2CCCCC2)NC(=O)c2ccc(CNC(=O)c3cnc4ccccn34)cc2)C1 (stereo not given in full) [SR-302]
inactive: [1] 77% | [2] 80% | [3] 86% | [4] 68% | [5] 96% | [6] 100% | [7] 100% | [8] 100% | [9] 99% | [10] 100% | [11] 87% | [12] 70% | [13] 92% | [14] 82% | [15] 100% | [16] 91% | [17] 100% | [18] 64% | [19] 100% | [20] 100% | [21] 100% | [22] 100% | [23] 85% | [24] 100% | [25] 100% | [26] 99% | [27] 67% | [28] 97% | [29] 100% | [30] 80% | [31] 100% | [32] 81% | [33] 100% | [34] 100% | [35] 72% | [36] 99% | [37] 93% | [38] 92% | [39] 93% | [40] 98% | [41] 100% | [42] 97% | [43] 85% | [44] 51% | [45] 100%
